Key:
[1] = Superoxide anion chemiluminescent assay (hypoxanthine/xanthine oxidase); format: biochemical; conditions: mean of 6 independent assays
Excerpt: (§1) The superoxide anion has been measured by a chemiluminescent assay based on the hypoxanthine (HPX)/xanthine oxidase (XOD) reaction using the Lumimax Superoxide Anion Detection Kit (Stratagene, La Jolla, Calif., USA) and following the manufacturer's instructions. Hydroxyl radical scavenger activity has been measured by means of the Fenton reaction for the production of hydroxyl radicals and chemiluminescent dosage (using a Victor^3 chemiluminometer, Wallac, Finland) with luminol. Peroxynitrite ions have been determined by means of dosage with a spontaneous generator of peroxynitrites (3-morpholinosidnonimine hydrochloride; SIN-1) and a stable reagent for the nitroxyl ions (2-(4-carboxyphenyl)-4,4,5,5-tetramethylimidazoline-1-oxyl-3-oxide potassium salt PTIO spin trap) then dosed by means of electron spin resonance (ESR) using a. Nippon Denshi JES-FR30.
(§2) Extract 1 and Extract 2 listed in Table are derived from Syringa vulgaris cell cultures. […] The results are expressed as the concentration inhibiting 50% of activity (IC50). The values reported are the means of 6 independent assays.

[2] = Hydroxyl radical scavenger activity (Fenton reaction, luminol chemiluminescence); format: biochemical; conditions: mean of 6 independent assays
Excerpt: as §1, with “Syringa vulgaris Extracts 1 and 2, prepared as described in examples 1 and 2, have been used to assess in vitro antioxidant action with specific oxygen radical generating systems such as the superoxide anion (O2^−), the hydroxyl radical (HO), the peroxynitrite radical (ONOO^−) and the inhibition of lipid peroxidation. The” for “The”, “JES-FR30. […].” for “JES-FR30.”
Extract 1 and Extract 2 listed in Table are derived from Syringa vulgaris cell cultures. In said extracts, verbascoside is present at 0.82% and 35% by weight respectively. […]

[3] = Peroxynitrite assay (SIN-1, PTIO spin trap, ESR); format: biochemical; conditions: mean of 6 independent assays
Excerpt: as §1, §2

tyrosinase [4] = assay: Tyrosinase inhibition, conversion of L-DOPA to DOPAquinone; format: biochemical, Mushroom; conditions: 100 μg/ml
Excerpt: (§3) The enzyme tyrosinase catalyses the reactions leading to melanin biosynthesis from tyrosine. […] Substances inhibiting tyrosinase activity produce clearing/bleaching effect on the skin, since they block melanin synthesis. The method used to determine the inhibition of tyrosinase activity in the oxidation reaction of L-tyrosine to L-DOPA is that described in Kim et al. […] Biol. Pharm. Bull. 28(2), 323-327, 2005). The method applied for determination of the inhibition of tyrosinase activity in the conversion of L-DOPA to DOPAquinone is that described in Masamoto et al. (Mushroom tyrosinase inhibitory activity of esculetin isolated from seeds of Euphorbia lathyris L. Biosci. Biotechnol. Biochem., 67(3), 631-634, 2003).

tyrosinase [5] = assay: Tyrosinase inhibition, oxidation of L-tyrosine to L-DOPA; format: biochemical; conditions: 250 μg/ml
Excerpt: as §3

A549 cells = assay: Oxidative stress (ROS, DCF fluorescence) in A549 cell cultures; format: cell-based, human; conditions: 1 mM, A549, galactose oxidative stress
Description: 10×10^5 A549 cells (ATCC-CCL195) have been seeded into wells with 3 ml of DMEM/medium (HAM'S F12K) with 10% FCS and incubated at 37° C. in a 5% CO2, water vapour saturated atmosphere. After 24 hours the culture medium is replaced by medium supplemented with 5.55 mM galactose, which is left in contact with the cells for 20 hours. The medium is once again replaced with medium containing galactose in the presence or absence of the test compound. After 5 hours, quantitative measurement of the ROSs is performed by washing the cells with phosphate buffer and then incubating them with 30 μM DCF-DA in buffer solution. At the end of a 15 minute incubation, excess DCF-DA is removed from the cells by washing, prior to measuring the fluorescence emitted.
Antioxidant activity measurements are performed using a (Hitachi F3010) spectrophotometer with excitation at 488 nm and measuring emission at 525 nm, and values are expressed in pmoles, by extrapolation from the calibration curve constructed using known quantities of DCF, in relation to total cellular protein. Values are thus expressed in % ages with respect to the ROS, content of the cells not subjected to oxidative stress, to which are assigned a value of 100.
Syringa vulgaris Extracts 1 and 2 and ascorbic acid have been dissolved in phosphate buffer.

Row | Structure (SMILES) | Test LDOPA-DOPAquinone inhibitory activity (%) (tyrosinase [4]) | Test L-tyrosine-DOPA inhibitory activity (%) (tyrosinase [5]) | other results
1 | O=C1c2c(O)cccc2C([C@@H]2O[C@H](CO)[C@@H](O)[C@H](O)[C@H]2O)c2cc(CO)cc(O)c21 (some centres unmarked) [Aloin, reference compound] | – | – | Superoxide radical (IC50) [1]: 7.6 µg/mL; Hydroxyl radial (IC50) [2]: 2.9 µg/mL; Peroxynitrite radical (IC50) [3]: 12.3 µg/mL
2 | O=c1cc(CO)occ1O [Kojic acid, reference compound] | 35 | 94.1 | –
3 | Oc1cccc(O)c1 [Resorcinol, reference compound] | 0 | 56.9 | –
4 | O=C1O[C@H]([C@@H](O)CO)C(O)=C1O [Ascorbic acid, reference compound] | – | – | ROS level (%) (A549 cells): 62.91 ± 3.82 %
